According to patent publication US8415469B2, “Compounds and methods for kinase modulation, and indications therefor” (Plexxikon Inc., priority 2005, dated 2013):

Tests used:
Assay type in all cases: biochemical
[1] = molecular target: T1, c-Raf-1 (Homo sapiens, UniProt P04049); assay: AlphaScreen kinase assay, c-Raf-1; details: read-out: IC50, activity toward kinase c-Raf-1
T1 construct: purchased Upstate Biotechnology

[2] = molecular target: T2, Pyk2 (Homo sapiens, UniProt Q14289); assay: AlphaScreen kinase assay, Pyk2; details: read-out: IC50, activity toward kinase Pyk2
T2 construct: purchased Upstate Biotechnology

[3] = molecular target: T3, B-Raf V600E (Homo sapiens, UniProt P15056, V600E); assay: AlphaScreen kinase assay, B-Raf V600E; details: read-out: IC50, activity toward kinase B-Raf V600E
T3 construct: P4254. pFastBacBD-CDC37 BRAF D437-K722-X, V600E; His6 with pFastBac HT leader (TEV site) (N); made in house; host or cells: Sf9 (baculovirus; chaperone CDC37 co-expressed)

[4] = molecular target: T4, Jnk1 (Homo sapiens, UniProt P45983); assay: AlphaScreen kinase assay, Jnk1; details: read-out: IC50, activity toward kinase Jnk1
T4 construct: purchased Upstate Biotechnology

[5] = molecular target: T5, Btk (Homo sapiens, UniProt Q06187); assay: Z'-Lyte FRET kinase assay (Invitrogen), Btk; details: read-out: IC50, activity toward kinase Btk
T5 construct: purchased Invitrogen (assay run by Invitrogen)

[6] = molecular target: T6, TEC (Homo sapiens, UniProt P42680); assay: AlphaScreen kinase assay, TEC; details: read-out: IC50, activity toward kinase TEC
T6 sequence (P42680 1-631): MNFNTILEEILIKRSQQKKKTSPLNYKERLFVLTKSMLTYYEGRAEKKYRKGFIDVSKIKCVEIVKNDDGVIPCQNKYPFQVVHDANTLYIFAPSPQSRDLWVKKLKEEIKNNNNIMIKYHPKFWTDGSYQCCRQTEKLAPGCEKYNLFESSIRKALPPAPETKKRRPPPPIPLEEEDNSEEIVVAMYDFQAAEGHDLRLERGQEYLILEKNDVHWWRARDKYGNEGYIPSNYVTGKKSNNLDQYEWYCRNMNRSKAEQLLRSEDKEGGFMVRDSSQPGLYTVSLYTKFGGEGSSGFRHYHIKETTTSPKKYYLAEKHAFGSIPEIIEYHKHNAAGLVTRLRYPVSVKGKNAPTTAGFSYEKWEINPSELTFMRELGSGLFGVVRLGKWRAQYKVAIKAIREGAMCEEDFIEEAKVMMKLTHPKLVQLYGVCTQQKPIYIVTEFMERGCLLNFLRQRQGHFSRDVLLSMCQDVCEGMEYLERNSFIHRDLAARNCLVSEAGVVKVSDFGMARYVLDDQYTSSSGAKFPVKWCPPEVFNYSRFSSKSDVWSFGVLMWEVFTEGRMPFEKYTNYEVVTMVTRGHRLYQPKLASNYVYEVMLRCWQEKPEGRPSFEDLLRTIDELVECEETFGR
Description: AlphaScreen assay was used to screen additional kinases. The assay is similarly dependent on the phosphorylation of a peptide substrate. In this assay, an antibody that recognizes phosphorylated substrate is bound to an acceptor bead. The peptide substrate is attached to biotin, which binds to a donor head that contains streptavidin. Thus phosphorylated substrate is bound by antibody and streptavidin, bringing the donor and acceptor heads into close proximity when kinase is not inhibited. The donor produces singlet oxygen which results in emission from the acceptor when they are in close proximity. Conversely, when kinase is inhibited, the donor and acceptor beads are not associated and the emission from the acceptor is reduced.
AlphaScreen assays were done using compounds dissolved in DMSO to a concentration of 20 mM. The compounds were diluted accordingly to the desired final concentrations in each sample well, using 1:3 serial dilution for a total of 8 concentration points.

[7] = molecular target: T7, B-Raf (Homo sapiens, UniProt P15056); assay: AlphaScreen kinase assay, B-Raf; details: read-out: IC50, activity toward kinase B-Raf
T7 construct: purchased Upstate Biotechnology

[8] = molecular target: T8, FGFR1 (Homo sapiens, UniProt P11362, C488A/C584S); assay: AlphaScreen kinase assay, FGFR1; details: read-out: IC50, activity toward kinase FGFR
T8 construct: P1351.pET N6 BI-PTP FGFR A458-E765-X C488A, C584S; made in house; host or cells: E. coli (PTP1B co-expressed)

[9] = molecular target: T9, Src (Homo sapiens, UniProt P12931); assay: AlphaScreen kinase assay, Src; details: read-out: IC50, activity toward kinase Src
T9 construct: P1144. pET-N6 BI-PTP SRC V86-L536-X; made in house

[10] = molecular target: T10, Jnk3 (Homo sapiens, UniProt P53779); assay: AlphaScreen kinase assay, Jnk3; details: read-out: IC50, activity toward kinase Jnk3
T10 construct: purchased Upstate Biotechnology

[11] = molecular target: T11, Fms (Homo sapiens, UniProt P07333); assay: AlphaScreen kinase assay, Fms; details: read-out: IC50, activity toward kinase Fms
T11 construct: purchased Upstate Biotechnology

[12] = molecular target: T12, Kit (Homo sapiens, UniProt P10721); assay: AlphaScreen kinase assay, Kit; details: read-out: IC50, activity toward kinase Kit
T12 construct: P1332.N6 BI PTP KIT M552-K948-X COD; His6 (N); made in house; host or cells: E. coli (PTP1B co-expressed)

[13] = molecular target: T13, Ret (Homo sapiens, UniProt P07949); assay: AlphaScreen kinase assay, Ret; details: read-out: IC50, activity toward kinase Ret
T13 construct: P1378.pET-SF BI-PTP RET H661-R1012 HIS; made in house
T13 sequence (P07949 with tags, fused parts or gaps): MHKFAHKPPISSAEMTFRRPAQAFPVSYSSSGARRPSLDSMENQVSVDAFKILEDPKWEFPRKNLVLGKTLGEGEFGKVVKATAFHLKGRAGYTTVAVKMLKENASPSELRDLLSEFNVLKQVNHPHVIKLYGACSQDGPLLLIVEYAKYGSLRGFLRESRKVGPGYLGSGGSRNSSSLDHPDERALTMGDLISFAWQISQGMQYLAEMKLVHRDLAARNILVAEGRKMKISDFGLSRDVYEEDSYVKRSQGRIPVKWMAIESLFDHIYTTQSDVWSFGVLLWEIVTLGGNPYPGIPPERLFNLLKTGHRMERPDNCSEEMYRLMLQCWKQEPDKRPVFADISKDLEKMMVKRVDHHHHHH

[14] = molecular target: T14, Fak (Homo sapiens, UniProt Q05397); assay: AlphaScreen kinase assay, Fak; details: read-out: IC50, activity toward kinase Fak
T14 construct: P1358.pFastBacHtb FAK S411-Q686-X; His6 with pFastBacHTb leader (TEV site) (N); made in house; host or cells: Sf9 (baculovirus)

[15] = molecular target: T15, Met (Homo sapiens, UniProt P08581); assay: AlphaScreen kinase assay, Met; details: read-out: IC50, activity toward kinase Met
T15 construct: P1818.pETN6 BI-PTP MET G1056-G1364-X WT; His6 (N); made in house; host or cells: E. coli (PTP1B co-expressed)
Summary of the method: (§1)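 Stock 20 mM compound in DMSO, diluted 1:3 serially to 8 final concentrations. Kinase phosphorylates biotinylated peptide; donor (streptavidin) and acceptor (anti-phospho antibody) beads then associate. Reduced acceptor emission indicates inhibition.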

[16] = molecular target: T16, Jnk2 (Homo sapiens, UniProt P45984); assay: AlphaScreen kinase assay, Jnk2; details: read-out: IC50, activity toward kinase Jnk2
T16 construct: purchased Roche Protein Expression Group (Indianapolis, IN)
Summary of the method: as §1

[17] = molecular target: T17, Zap70 (Homo sapiens, UniProt P43403); assay: AlphaScreen kinase assay, Zap70; details: read-out: IC50, activity toward kinase Zap70
T17 construct: P1868.pFastBac1 ZAP70 D327-G606 HIS, WT; His7 (HHHHHHH) (C); made in house
T17 sequence (P43403 with tags, fused parts or gaps): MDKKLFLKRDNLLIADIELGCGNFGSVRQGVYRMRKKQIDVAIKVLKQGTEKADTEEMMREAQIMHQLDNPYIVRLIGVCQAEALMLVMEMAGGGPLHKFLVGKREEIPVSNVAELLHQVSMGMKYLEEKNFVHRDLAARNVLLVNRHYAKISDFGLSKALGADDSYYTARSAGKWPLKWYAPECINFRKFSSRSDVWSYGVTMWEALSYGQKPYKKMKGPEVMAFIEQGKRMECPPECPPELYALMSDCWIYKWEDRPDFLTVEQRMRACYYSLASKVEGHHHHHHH
Summary of the method: as §1

T8 sequence (P11362 458-765 C488A/C584S): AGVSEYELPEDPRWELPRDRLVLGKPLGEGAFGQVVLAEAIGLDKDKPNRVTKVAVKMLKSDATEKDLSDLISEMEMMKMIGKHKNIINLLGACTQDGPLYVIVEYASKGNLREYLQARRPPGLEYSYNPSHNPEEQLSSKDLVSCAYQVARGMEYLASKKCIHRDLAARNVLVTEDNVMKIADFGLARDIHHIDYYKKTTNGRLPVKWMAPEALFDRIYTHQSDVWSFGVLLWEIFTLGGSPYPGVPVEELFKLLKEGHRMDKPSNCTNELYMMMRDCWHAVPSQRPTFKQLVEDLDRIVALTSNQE
T1 sequence (P04049 whole entry): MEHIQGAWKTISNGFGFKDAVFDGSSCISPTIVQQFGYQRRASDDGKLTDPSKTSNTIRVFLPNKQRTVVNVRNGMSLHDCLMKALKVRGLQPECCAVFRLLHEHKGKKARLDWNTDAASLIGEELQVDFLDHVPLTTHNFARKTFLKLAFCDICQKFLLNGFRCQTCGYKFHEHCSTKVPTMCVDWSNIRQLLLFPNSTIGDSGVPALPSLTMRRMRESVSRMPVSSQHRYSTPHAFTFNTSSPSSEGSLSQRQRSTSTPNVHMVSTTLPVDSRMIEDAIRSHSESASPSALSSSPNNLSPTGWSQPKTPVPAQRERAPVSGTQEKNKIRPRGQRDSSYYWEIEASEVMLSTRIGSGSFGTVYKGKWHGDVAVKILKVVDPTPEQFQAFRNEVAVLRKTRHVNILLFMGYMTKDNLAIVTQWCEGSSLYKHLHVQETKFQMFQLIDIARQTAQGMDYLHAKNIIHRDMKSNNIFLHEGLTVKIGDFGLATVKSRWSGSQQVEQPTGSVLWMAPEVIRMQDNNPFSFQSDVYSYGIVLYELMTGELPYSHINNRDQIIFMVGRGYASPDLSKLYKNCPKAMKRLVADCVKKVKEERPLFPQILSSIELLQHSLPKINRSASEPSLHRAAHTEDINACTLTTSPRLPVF
T11 sequence (P07333 20-972): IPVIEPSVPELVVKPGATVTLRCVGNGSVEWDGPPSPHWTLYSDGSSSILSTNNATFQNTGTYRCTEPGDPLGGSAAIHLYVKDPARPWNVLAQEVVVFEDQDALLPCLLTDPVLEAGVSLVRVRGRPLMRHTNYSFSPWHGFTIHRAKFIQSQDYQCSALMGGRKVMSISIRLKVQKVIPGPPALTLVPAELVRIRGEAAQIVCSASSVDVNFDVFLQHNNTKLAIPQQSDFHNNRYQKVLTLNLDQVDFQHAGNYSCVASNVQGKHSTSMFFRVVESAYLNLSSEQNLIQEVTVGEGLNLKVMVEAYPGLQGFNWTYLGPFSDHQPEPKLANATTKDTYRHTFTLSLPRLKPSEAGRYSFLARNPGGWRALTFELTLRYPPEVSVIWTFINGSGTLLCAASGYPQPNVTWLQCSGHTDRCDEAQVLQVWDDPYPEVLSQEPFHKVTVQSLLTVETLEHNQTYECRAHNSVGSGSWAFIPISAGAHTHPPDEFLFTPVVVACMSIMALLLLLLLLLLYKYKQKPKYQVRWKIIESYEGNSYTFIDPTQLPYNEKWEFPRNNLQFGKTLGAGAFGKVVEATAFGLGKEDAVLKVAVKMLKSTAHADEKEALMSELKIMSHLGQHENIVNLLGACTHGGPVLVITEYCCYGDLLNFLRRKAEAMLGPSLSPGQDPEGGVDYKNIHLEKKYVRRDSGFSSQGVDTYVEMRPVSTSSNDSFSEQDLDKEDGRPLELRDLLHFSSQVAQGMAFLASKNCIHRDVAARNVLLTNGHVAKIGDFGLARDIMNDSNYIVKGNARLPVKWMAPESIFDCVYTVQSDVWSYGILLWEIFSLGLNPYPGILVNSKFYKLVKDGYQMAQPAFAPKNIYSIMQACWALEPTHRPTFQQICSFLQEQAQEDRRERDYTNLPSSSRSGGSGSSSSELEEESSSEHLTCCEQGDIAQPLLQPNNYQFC
T5 sequence (Q06187 whole entry): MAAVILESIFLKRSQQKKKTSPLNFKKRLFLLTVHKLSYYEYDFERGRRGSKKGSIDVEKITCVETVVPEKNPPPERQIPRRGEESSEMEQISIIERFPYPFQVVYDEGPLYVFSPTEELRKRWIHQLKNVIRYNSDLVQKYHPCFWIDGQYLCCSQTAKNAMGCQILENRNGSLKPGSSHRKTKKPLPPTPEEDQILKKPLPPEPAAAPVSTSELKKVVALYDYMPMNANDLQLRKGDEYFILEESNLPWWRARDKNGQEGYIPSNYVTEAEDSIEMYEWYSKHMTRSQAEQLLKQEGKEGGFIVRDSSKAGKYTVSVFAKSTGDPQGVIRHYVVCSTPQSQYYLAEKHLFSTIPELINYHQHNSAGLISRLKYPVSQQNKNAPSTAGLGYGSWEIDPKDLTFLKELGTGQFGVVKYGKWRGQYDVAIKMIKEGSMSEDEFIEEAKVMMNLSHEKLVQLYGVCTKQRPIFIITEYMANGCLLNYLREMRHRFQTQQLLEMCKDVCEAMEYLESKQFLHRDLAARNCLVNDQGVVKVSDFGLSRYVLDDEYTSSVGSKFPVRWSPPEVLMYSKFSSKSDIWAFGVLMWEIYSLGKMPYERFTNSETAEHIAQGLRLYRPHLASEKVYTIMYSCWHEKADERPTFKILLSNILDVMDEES
T3 sequence (P15056 with tags, fused parts or gaps V600E): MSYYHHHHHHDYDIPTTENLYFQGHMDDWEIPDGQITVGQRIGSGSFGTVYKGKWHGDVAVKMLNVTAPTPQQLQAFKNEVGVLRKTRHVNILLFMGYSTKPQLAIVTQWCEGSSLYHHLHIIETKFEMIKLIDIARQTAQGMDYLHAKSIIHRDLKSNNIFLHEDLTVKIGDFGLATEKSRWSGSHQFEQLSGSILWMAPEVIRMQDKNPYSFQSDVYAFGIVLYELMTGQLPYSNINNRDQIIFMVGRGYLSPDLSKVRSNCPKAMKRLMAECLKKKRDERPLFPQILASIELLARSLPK
T16 sequence (P45984 whole entry): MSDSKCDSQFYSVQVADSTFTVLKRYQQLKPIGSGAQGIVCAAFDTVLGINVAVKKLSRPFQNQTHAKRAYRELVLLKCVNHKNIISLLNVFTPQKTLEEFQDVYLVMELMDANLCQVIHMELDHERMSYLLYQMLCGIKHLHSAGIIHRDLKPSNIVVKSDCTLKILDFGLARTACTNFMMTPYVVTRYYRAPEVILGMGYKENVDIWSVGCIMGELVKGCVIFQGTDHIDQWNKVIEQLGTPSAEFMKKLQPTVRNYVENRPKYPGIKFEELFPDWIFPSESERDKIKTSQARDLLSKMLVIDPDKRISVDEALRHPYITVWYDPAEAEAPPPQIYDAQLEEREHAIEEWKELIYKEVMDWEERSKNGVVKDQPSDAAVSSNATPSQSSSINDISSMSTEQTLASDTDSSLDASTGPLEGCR
T2 sequence (Q14289 whole entry): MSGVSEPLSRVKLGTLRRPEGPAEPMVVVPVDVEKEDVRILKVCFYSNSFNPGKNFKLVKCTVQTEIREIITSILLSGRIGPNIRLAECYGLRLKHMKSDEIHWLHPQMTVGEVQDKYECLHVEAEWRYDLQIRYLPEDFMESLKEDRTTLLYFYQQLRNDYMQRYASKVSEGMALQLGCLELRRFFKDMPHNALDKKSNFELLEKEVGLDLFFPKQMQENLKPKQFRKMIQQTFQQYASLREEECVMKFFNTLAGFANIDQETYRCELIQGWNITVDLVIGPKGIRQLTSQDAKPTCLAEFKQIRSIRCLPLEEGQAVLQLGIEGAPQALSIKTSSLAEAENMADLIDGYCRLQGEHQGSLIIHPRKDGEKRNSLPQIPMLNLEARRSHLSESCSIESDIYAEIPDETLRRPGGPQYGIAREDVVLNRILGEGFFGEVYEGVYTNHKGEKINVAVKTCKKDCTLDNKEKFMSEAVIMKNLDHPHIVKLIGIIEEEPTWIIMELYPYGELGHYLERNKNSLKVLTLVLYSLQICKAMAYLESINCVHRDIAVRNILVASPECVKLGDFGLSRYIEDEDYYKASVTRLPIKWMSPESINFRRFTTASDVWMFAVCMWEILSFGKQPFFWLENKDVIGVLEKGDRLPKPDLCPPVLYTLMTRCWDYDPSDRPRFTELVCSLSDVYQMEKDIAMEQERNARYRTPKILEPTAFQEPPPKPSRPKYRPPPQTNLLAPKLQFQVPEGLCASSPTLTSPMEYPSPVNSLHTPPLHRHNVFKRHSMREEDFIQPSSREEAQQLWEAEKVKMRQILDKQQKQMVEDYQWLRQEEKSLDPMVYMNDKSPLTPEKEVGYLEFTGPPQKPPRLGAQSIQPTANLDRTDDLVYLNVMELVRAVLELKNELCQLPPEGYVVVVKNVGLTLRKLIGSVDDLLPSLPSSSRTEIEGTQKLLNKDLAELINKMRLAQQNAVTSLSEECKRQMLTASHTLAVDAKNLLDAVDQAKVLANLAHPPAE
T4 sequence (P45983 whole entry): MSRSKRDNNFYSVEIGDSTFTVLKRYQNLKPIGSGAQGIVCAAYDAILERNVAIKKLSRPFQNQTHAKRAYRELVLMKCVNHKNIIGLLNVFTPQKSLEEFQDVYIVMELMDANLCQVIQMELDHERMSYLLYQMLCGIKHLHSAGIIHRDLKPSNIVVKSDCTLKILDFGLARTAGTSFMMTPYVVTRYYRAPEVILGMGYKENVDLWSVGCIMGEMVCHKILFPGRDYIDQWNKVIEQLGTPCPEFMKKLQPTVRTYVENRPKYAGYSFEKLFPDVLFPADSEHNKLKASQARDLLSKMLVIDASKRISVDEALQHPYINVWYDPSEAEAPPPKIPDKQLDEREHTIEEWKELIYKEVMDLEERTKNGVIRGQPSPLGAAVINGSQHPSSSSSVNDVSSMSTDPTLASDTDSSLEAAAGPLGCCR
T14 sequence (Q05397 411-686): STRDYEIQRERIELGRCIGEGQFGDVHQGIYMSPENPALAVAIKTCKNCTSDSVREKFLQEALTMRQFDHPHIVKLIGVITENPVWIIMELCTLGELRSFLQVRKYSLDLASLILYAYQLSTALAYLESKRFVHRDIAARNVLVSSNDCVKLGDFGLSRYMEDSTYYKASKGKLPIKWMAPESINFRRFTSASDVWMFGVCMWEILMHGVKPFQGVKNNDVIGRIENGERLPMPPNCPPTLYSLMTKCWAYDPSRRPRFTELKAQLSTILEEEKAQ

IC50 [1]	IC50 [2]	IC50 [3]	IC50 [4]	IC50 [5]	IC50 [6]	IC50 [7]	IC50 [8]	IC50 [9]	IC50 [10]	IC50 [11]	IC50 [12]	IC50 [13]	IC50 [14]	IC50 [15]	IC50 [16]	IC50 [17]	SMILES
≤ 10 µM	≤ 10 µM	≤ 10 µM	≤ 10 µM	≤ 10 µM	≤ 10 µM	≤ 10 µM	≤ 10 µM	–	–	–	–	–	–	–	–	–	CCCS(=O)(=O)Nc1cccc(C(=O)c2c[nH]c3ncc(-c4ccccc4)cc23)c1F [Compound P-0897, Propane-1-sulfonic acid [2-fluoro-3-(5-phenyl-1H-pyrrolo[2,3-b]pyridine-3-carbonyl)-phenyl]-amide]
≤ 10 µM	≤ 10 µM	≤ 10 µM	≤ 10 µM	≤ 10 µM	≤ 10 µM	≤ 10 µM	≤ 10 µM	≤ 10 µM	–	–	–	–	–	–	–	–	CCCS(=O)(=O)Nc1ccc(F)c(C(=O)c2c[nH]c3ncc(C(C)C)cc23)c1F [Compound P-0997]
≤ 10 µM	≤ 10 µM	≤ 10 µM	≤ 10 µM	≤ 10 µM	≤ 10 µM	≤ 10 µM	≤ 10 µM	–	≤ 10 µM	–	–	–	–	–	–	–	C=C(C)c1cnc2[nH]cc(C(=O)c3c(F)ccc(NS(=O)(=O)CCC)c3F)c2c1 [Compound P-0991, Propane-1-sulfonic acid [2,4-difluoro-3-(5-isopropenyl-1H-pyrrolo[2,3-b]pyridine-3-carbonyl)-phenyl]-amide]
≤ 10 µM	≤ 10 µM	≤ 10 µM	≤ 10 µM	≤ 10 µM	≤ 10 µM	≤ 10 µM	≤ 10 µM	–	≤ 10 µM	≤ 10 µM	≤ 10 µM	≤ 10 µM	≤ 10 µM	–	–	–	COC(=O)Nc1ccc(F)c(Cc2c[nH]c3ncc(-c4cccnc4)cc23)c1F [Compound P-0257, [2,4-Difluoro-3-(5-pyridin-3-yl-1H-pyrrolo[2,3-b]pyridin-3-ylmethyl)-phenyl]-carbamic acid methyl ester]
≤ 10 µM	–	≤ 10 µM	≤ 10 µM	≤ 10 µM	≤ 10 µM	–	≤ 10 µM	–	–	–	–	≤ 10 µM	–	≤ 10 µM	≤ 10 µM	–	CS(=O)(=O)Nc1cccc(-c2cnc3[nH]cc(C(=O)c4cc(NS(C)(=O)=O)ccc4F)c3c2)c1 [Compound P-0156, N-{4-Fluoro-3-[5-(3-methanesulfonylamino-phenyl)-1H-pyrrolo[2,3-b]pyridine-3-carbonyl]-phenyl}-methanesulfonamide]
–	–	–	–	≤ 10 µM	≤ 10 µM	–	–	–	–	–	–	–	–	–	–	–	O=C(NCc1ccc(CCc2c[nH]c3ncccc23)cc1)Nc1ccccc1 [Compound P-0429]
≤ 10 µM	–	≤ 10 µM	≤ 10 µM	≤ 10 µM	≤ 10 µM	≤ 10 µM	≤ 10 µM	–	–	≤ 10 µM	–	≤ 10 µM	–	–	≤ 10 µM	–	CS(=O)(=O)Nc1ccc(F)c(C(=O)c2c[nH]c3ncc(-c4cccc(S(C)(=O)=O)c4)cc23)c1 [Compound P-0297, N-{4-Fluoro-3-[5-(3-methanesulfonyl-phenyl)-1H-pyrrolo[2,3-b]pyridine-3-carbonyl]-phenyl}-methanesulfonamide]
≤ 10 µM	–	≤ 10 µM	≤ 10 µM	≤ 10 µM	≤ 10 µM	≤ 10 µM	≤ 10 µM	–	≤ 10 µM	≤ 10 µM	–	≤ 10 µM	–	≤ 10 µM	≤ 10 µM	≤ 10 µM	CS(=O)(=O)Nc1ccc(F)c(C(=O)c2c[nH]c3ncc(-c4cccc(C(N)=O)c4)cc23)c1 [Compound P-0228, 3-[3-(2-Fluoro-5-methanesulfonylamino-benzoyl)-1H-pyrrolo[2,3-b]pyridin-5-yl]-benzamide]
